According to the Biogen ADME set (Fang et al. 2023):
Values after ≈ are worked out from the molar mass of the structure shown.

Conditions: for aqueous solubility: pH 6.8

| MDR1-MDCK efflux ratio | intrinsic clearance, human liver microsomes | intrinsic clearance, rat liver microsomes | aqueous solubility | fraction unbound, human plasma | fraction unbound, rat plasma | SMILES |
| --- | --- | --- | --- | --- | --- | --- |
| 1.44 | ≤ 4.74 mL/min/kg | 137 mL/min/kg | – | – | – | Cn1cccc(C(=O)NCc2nc(C(C)(C)C)no2)c1=O |
| 3.56 | ≤ 4.74 mL/min/kg | ≤ 10.7 mL/min/kg | 23.5 µg/mL (≈ 99.4 µM) | – | – | CC(=O)Nc1cnn(CC2CCN(C)CC2)c1 |
| – | – | – | 0.5 µg/mL (≈ 1.46 µM) | – | – | Cc1ccc(N/N=C2\C(=O)N(C)N=C2Nc2ccccc2Cl)cc1 |
| – | 75 mL/min/kg | 591 mL/min/kg | – | – | – | Fc1cc(-c2noc(C3CCN(C4CC4)CC3)n2)cc(F)c1F |
| 6.17 | ≤ 4.74 mL/min/kg | 133 mL/min/kg | 8.26 µg/mL (≈ 22.5 µM) | – | – | O=C(NCc1ccc(F)cc1)C1CCN(C(=O)/C=C/c2ccccc2)CC1 |
| 17.2 | 5.64 mL/min/kg | 163 mL/min/kg | – | – | – | CCN(Cc1cnn(C(C)C)c1)C(=O)NCCC(C)(C)OC |
| 0.553 | 127 mL/min/kg | 2040 mL/min/kg | – | – | – | Cc1oc2ncnc(NCc3cc(F)cc4c3OCOC4)c2c1C |
| 0.473 | – | – | 0.18 µg/mL (≈ 0.529 µM) | – | – | O=C(Nc1ccc2c3c(cccc13)CC2)c1ccc(-n2cncn2)cc1 |
| 0.582 | 53.1 mL/min/kg | 952 mL/min/kg | 56.9 µg/mL (≈ 187 µM) | – | – | Cc1ccsc1C(=O)NCc1ccc2c(c1)OCCCO2 |
| 26.6 | 29.8 mL/min/kg | 1410 mL/min/kg | – | – | – | CC(C)(C)C(=O)N1CCC(CN(CC(N)=O)C2CCCC2)CC1 |
| 1.04 | ≤ 4.74 mL/min/kg | ≤ 10.7 mL/min/kg | 33.6 µg/mL (≈ 161 µM) | – | – | Cn1cc(C(=O)O)c(C2CCCCC2)n1 |
| 0.575 | 10.9 mL/min/kg | 146 mL/min/kg | 58.1 µg/mL (≈ 228 µM) | – | – | c1cnc(N2CCC(Cc3ccncc3)CC2)nc1 |
| 0.503 | 92.6 mL/min/kg | 177 mL/min/kg | 41.2 µg/mL (≈ 177 µM) | – | – | Cc1cc(C)nc(NC(=O)N(C)C2CCC2)c1 |
| 2.89 | ≤ 4.74 mL/min/kg | 34.5 mL/min/kg | – | – | – | O=S(=O)(NC[C@H]1CCCN1)c1ccc(OC(F)F)cc1 |
| – | – | – | 1.13 µg/mL (≈ 4.13 µM) | – | – | CCOc1ncccc1C(=O)Nc1sccc1C#N |
| 1.9 | ≤ 4.74 mL/min/kg | 91.4 mL/min/kg | – | – | – | c1cc(-c2nnc(NCc3cncs3)o2)ccn1 |
| – | 25.1 mL/min/kg | 79.3 mL/min/kg | 5.03 µg/mL (≈ 21 µM) | – | – | Oc1ccc(-c2noc(-c3cccnc3)n2)cc1 |
| 7.64 | ≤ 4.74 mL/min/kg | ≤ 10.7 mL/min/kg | – | – | – | Cc1nc(O)c(Cl)c(N(C)CC2CCN(C)CC2)n1 |
| 0.743 | 44.3 mL/min/kg | 552 mL/min/kg | – | – | – | CN(CCc1ccncc1)c1ncccc1C#N |
| 56.4 | – | – | 0.33 µg/mL (≈ 0.715 µM) | – | – | Cc1ccc(S(=O)(=O)Cc2nc(-c3ccc(C(=O)NCc4cccnc4)cc3)oc2C)cc1 |
| 1.02 | ≤ 4.74 mL/min/kg | – | – | 0.674 | – | CN(C(=O)c1cc(N2CCNC2=O)ccc1F)C1CCC(N)CC1 (configuration not stated) |
| 0.882 | 144 mL/min/kg | 1500 mL/min/kg | 73.9 µg/mL (≈ 228 µM) | – | – | Cc1cccc(N2CCN(C(=O)c3cncnc3C(C)C)CC2)c1 |
| 34.6 | 10.1 mL/min/kg | 129 mL/min/kg | 28.9 µg/mL (≈ 97.3 µM) | – | – | Cc1ccc(-n2c(S)nnc2-c2ccc(O)cc2)c(C)c1 |
| – | – | – | 0.4 µg/mL (≈ 0.832 µM) | – | – | C=CC(=O)Nc1cccc(Sc2nc(Nc3ccc(N4CCN(C)CC4)cc3)ncc2Cl)c1 |
| 0.669 | 31.7 mL/min/kg | 269 mL/min/kg | 47.6 µg/mL (≈ 150 µM) | – | – | COc1cc(F)c(NCC(=O)Nc2ccc(C)cc2)cc1OC |
| 5.67 | 930 mL/min/kg | 3260 mL/min/kg | 3.9 µg/mL (≈ 9.47 µM) | – | – | O=C(CCc1ccc(Cl)cc1)N1CCCC(c2n[nH]cc2-c2cccc(F)c2)C1 (configuration not stated) |
| 0.361 | ≤ 4.74 mL/min/kg | ≤ 10.7 mL/min/kg | – | – | – | c1ccc(CC2=NCCN2)cc1 |

| MDR1-MDCK efflux ratio | intrinsic clearance, human liver microsomes | intrinsic clearance, rat liver microsomes | aqueous solubility | fraction unbound, human plasma | fraction unbound, rat plasma | SMILES |
| --- | --- | --- | --- | --- | --- | --- |
| 0.571 | 8.12 mL/min/kg | 48.2 mL/min/kg | 22.9 µg/mL (≈ 74.3 µM) | – | – | Cc1nn(C)c2ncc(C(=O)Nc3ccc4c(c3)CCO4)cc12 |
| 0.519 | 57.9 mL/min/kg | 1460 mL/min/kg | – | – | – | O=c1c2sccc2nc2n1CCN(Cc1ccc(F)cc1F)CC2 |
| – | 25.8 mL/min/kg | 597 mL/min/kg | – | – | – | CCc1cc2c(OCC(=O)N3CCCC3)ncnc2s1 |
| 7.68 | ≤ 4.74 mL/min/kg | 25 mL/min/kg | 43.2 µg/mL (≈ 147 µM) | – | – | Cc1cc(NC(=O)CCc2cnn(C)c2)c2ccccc2n1 |
| – | ≤ 4.74 mL/min/kg | 461 mL/min/kg | 36.9 µg/mL (≈ 106 µM) | – | – | Cc1cc(Cl)c(OCCCN2CCNCC2)c(Br)c1 |
| – | – | – | 0.22 µg/mL (≈ 0.711 µM) | – | – | CNc1ccc(/C=C/C=C/c2nc3ccc(O)cc3s2)cn1 |
| 0.594 | 5.17 mL/min/kg | 45.6 mL/min/kg | 2.85 µg/mL (≈ 8.55 µM) | 0.0281 | 0.0117 | O=C(Nc1ccc2ccccc2n1)c1ccc(N2CCOC2=O)cc1 |
| 47.7 | 104 mL/min/kg | 237 mL/min/kg | 46.4 µg/mL (≈ 103 µM) | – | – | CCOc1ccccc1C(=O)N1CCC(c2nc(-c3ccc(OC)cc3)c(C(N)=O)[nH]2)CC1 |
| – | 65.7 mL/min/kg | 661 mL/min/kg | – | – | – | Cc1ncsc1-c1nc(CNc2cc(F)cc(F)c2)no1 |
| 6.11 | 10.2 mL/min/kg | 108 mL/min/kg | – | – | – | Cc1cnn(CCNC(=O)C2(Cn3cccn3)CC2)c1 |
| 0.498 | 205 mL/min/kg | 129 mL/min/kg | 50.9 µg/mL (≈ 221 µM) | – | – | COCC(=O)Nc1cccc(-n2cccc2)c1 |
| 67 | 12.1 mL/min/kg | 105 mL/min/kg | 47.5 µg/mL (≈ 162 µM) | – | – | CC(C)(C)NC(=O)NCCn1nc2c(cc1=O)CCCC2 |
| – | 567 mL/min/kg | 3770 mL/min/kg | – | – | – | O=C(CCc1cnn(-c2ccccc2)c1)N1CCC(n2c(=O)[nH]c3ccccc32)CC1 |
| 0.979 | 63.8 mL/min/kg | 1090 mL/min/kg | 74.3 µg/mL (≈ 220 µM) | – | – | COc1ccc(CCNCc2ccc(-c3ccccc3)o2)cc1OC |
| 1.57 | ≤ 4.74 mL/min/kg | 112 mL/min/kg | 36.7 µg/mL (≈ 143 µM) | – | – | Cc1nn(CCC#N)c(C)c1Oc1ccccc1O |
| 0.617 | 633 mL/min/kg | 4770 mL/min/kg | – | – | – | Cc1ccc2nc(CN(C)Cc3cccc(Cl)c3Cl)cc(=O)n2c1 |
| 0.9 | ≤ 4.74 mL/min/kg | 97.6 mL/min/kg | 2.04 µg/mL (≈ 6.07 µM) | – | – | Cc1ccc(C(=O)NC2CCN(CC#N)CC2)cc1Br |
| 1.29 | ≤ 4.74 mL/min/kg | 589 mL/min/kg | – | – | – | CC(C)=CCOc1cccc(C(=O)NN2CCOCC2)c1 |
| 0.561 | 25.7 mL/min/kg | 2240 mL/min/kg | – | – | – | CCn1c(CN2CCCCCC2)nc2ccccc2c1=O |
| 0.783 | 24.7 mL/min/kg | 290 mL/min/kg | 27.6 µg/mL (≈ 99 µM) | – | – | CCc1ccccc1-c1cn(CCc2cnccn2)nn1 |
| 1.29 | ≤ 4.74 mL/min/kg | 1200 mL/min/kg | – | – | – | CC1CCC(CNC2(CCO)CCOCC2)CC1 (configuration not stated) |
| 34.8 | 4.96 mL/min/kg | 121 mL/min/kg | 3.4 µg/mL (≈ 7.74 µM) | – | – | COc1ccc2cc(-c3[nH]c(-c4ccc(S(C)=O)cc4)nc3-c3ccncc3)ccc2c1 (configuration not stated) |
| 114 | ≤ 4.74 mL/min/kg | 26.1 mL/min/kg | 17 µg/mL (≈ 39.9 µM) | 0.154 | 0.172 | [2H]C([2H])([2H])NC(=O)c1nnc(NC(=O)C2CC2)cc1Nc1cccc(-c2ncn(C)n2)c1OC |
| – | 7.61 mL/min/kg | 17.1 mL/min/kg | – | – | – | CCC(C)(C)c1ccc(Oc2ccc(NC3=NN(c4ccccc4)C(=O)C3)cc2)cc1 |
| 8.23 | ≤ 4.74 mL/min/kg | – | – | 0.535 | – | CCc1c[nH]c2ncnc(N3CCC(CN4CCN(C)CC4)CC3)c12 |
| – | ≤ 4.74 mL/min/kg | ≤ 10.7 mL/min/kg | – | – | – | O=C(CN1CCCC1=O)N1CCc2nc3sccc3c(=O)n2CC1 |
| 0.471 | 104 mL/min/kg | 465 mL/min/kg | 30.2 µg/mL (≈ 131 µM) | – | – | Cc1ccc(C(=O)C(=O)NC2CCCC2)cc1 |

| SMILES | MDR1-MDCK efflux ratio | intrinsic clearance, human liver microsomes | intrinsic clearance, rat liver microsomes | aqueous solubility | fraction unbound, human plasma | fraction unbound, rat plasma |
| --- | --- | --- | --- | --- | --- | --- |
| Cc1ccc(CNc2cncc(-n3nc(C)cc3C)n2)cn1 | – | 23.4 mL/min/kg | 252 mL/min/kg | – | – | – |
| Cc1cccc(N(C)Cc2cnc(N(C)C)nc2)n1 | 0.769 | 57.7 mL/min/kg | 1770 mL/min/kg | – | – | – |
| O=c1[nH]c2ccccc2n1C1CCN(Cc2nc(-c3cccs3)no2)CC1 | – | 11.4 mL/min/kg | 234 mL/min/kg | – | – | – |
| N#Cc1cccc(-c2ccc(=O)n3c2[C@@H]2C[C@@H](CN(Cc4cccs4)C2)C3)c1 | 7.04 | 396 mL/min/kg | 2000 mL/min/kg | 48.9 µg/mL (≈ 126 µM) | – | – |
| Cn1ccc2c(NC(=O)N3CCCN(C(=O)Oc4ccccc4)CC3)cccc21 | – | 41.8 mL/min/kg | 777 mL/min/kg | 71.9 µg/mL (≈ 183 µM) | – | – |
